Like-named read-outs stand apart in the source and are kept apart here. Oligonucleotides are written 5' to 3', each unit as a sugar letter and its base; * is a phosphorothioate linkage, no mark a phosphodiester; rarer units and linkages stand in square brackets, end groups in braces. Plain capitals give the bases only. m = 2'-O-methyl; r = 2'-OH (RNA); f = 2'-fluoro
Legend:
Type in all cases: cell-based
TLR8 [1] = target: T1, TLR8 (Homo sapiens, UniProt Q9NR97); experiment: PBMC stimulation with DOTAP-complexed RNA ligands, TNF-α ELISA
T1 construct: Peripheral blood mononuclear cells (PBMCs) were obtained from buffy coats from healthy adult donors; endogenous in cells; host or cells: primary human PBMCs from healthy donor buffy coats (TLR8 in monocytes)
T1 sequence (Q9NR97 27-1041): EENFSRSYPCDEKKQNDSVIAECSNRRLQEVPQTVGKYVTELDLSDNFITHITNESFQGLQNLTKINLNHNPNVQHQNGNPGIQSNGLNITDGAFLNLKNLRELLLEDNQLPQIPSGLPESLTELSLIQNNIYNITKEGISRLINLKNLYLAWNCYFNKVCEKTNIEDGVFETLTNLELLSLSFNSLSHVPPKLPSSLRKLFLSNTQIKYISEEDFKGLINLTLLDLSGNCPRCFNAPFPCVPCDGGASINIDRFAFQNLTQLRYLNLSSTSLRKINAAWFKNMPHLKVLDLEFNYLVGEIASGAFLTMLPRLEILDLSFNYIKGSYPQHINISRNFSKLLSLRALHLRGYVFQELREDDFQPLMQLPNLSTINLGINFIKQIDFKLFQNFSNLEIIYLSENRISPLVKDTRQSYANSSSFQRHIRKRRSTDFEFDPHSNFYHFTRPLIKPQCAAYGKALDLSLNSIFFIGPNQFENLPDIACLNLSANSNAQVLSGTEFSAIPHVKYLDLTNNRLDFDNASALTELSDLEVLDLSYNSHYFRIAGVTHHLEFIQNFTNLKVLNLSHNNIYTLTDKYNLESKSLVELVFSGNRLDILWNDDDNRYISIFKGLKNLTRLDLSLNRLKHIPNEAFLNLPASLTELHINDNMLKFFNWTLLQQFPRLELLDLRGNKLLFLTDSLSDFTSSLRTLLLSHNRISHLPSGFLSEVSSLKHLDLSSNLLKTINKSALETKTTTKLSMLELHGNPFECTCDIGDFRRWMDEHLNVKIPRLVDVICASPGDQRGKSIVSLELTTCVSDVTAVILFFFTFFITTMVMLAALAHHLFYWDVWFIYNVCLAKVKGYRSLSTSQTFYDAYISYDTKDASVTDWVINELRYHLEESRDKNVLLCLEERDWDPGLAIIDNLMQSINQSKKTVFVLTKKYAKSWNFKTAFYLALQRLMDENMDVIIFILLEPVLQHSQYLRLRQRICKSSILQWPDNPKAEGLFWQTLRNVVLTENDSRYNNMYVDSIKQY

TLR7 [2] = target: T2, TLR7 (Homo sapiens, UniProt Q9NYK1); experiment: PBMC stimulation with DOTAP-complexed RNA ligands, IFN-α ELISA
T2 construct: Peripheral blood mononuclear cells (PBMCs) were obtained from buffy coats from healthy adult donors; endogenous in cells; host or cells: primary human PBMCs from healthy donor buffy coats (TLR7 expressed by pDCs)
T2 sequence (Q9NYK1 27-1049): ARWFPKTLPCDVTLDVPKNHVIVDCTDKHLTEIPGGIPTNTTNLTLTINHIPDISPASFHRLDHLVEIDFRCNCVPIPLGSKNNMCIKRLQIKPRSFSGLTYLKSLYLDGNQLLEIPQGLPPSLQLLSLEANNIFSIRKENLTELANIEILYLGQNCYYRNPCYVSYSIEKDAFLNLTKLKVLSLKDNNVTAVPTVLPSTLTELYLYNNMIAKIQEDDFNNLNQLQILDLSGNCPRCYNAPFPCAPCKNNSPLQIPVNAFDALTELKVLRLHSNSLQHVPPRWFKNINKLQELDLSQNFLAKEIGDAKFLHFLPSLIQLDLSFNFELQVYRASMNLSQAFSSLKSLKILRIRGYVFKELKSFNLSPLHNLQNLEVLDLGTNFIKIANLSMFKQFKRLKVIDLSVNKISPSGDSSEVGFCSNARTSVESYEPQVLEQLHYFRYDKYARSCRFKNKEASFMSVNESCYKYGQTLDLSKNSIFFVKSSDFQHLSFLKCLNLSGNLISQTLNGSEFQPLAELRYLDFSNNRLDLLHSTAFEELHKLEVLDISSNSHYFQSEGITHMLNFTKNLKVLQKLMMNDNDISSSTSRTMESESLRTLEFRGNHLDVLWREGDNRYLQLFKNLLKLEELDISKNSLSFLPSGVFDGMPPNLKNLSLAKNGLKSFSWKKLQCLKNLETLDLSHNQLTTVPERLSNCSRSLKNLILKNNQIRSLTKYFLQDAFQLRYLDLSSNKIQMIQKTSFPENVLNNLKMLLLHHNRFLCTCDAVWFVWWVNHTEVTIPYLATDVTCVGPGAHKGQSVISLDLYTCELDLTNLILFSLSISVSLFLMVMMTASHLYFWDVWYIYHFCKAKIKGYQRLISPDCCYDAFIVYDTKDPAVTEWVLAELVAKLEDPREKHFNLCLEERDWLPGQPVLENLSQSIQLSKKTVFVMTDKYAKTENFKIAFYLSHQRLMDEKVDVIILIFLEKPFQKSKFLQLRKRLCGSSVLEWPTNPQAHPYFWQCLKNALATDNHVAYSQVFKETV

TLR7 [3] = target: T2, TLR7; experiment: PBMC stimulation with p-L-arginine-complexed RNA ligands, IFN-α ELISA; details: human PBMCs; for IFN-α secretion (TLR7 activity): p-L-arginine delivery, 16 hours, ELISA (FIG. 7); for IFN-α secretion when co-delivered with 2′3′ cGMP: p-L-arginine complexes with 2′3′ cyclic GMP 5 μg/ml, ORN 0.6 μg/ml (FIG. 12)
Method: (§1) Peripheral blood mononuclear cells (PBMCs) were obtained from buffy coats from healthy adult donors. Buffy coat samples were first diluted with an equal volume of phosphate-buffered saline (PBS). Next, PBMCs were isolated via density gradient centrifugation with Lymphoprep density gradient media ([…] Technologies) and SepMate-50 tubes ([…] Technologies). Samples were centrifuged at 1000 g for 15 minutes. After centrifugation, the upper layers were collected by pouring into a new tube, diluted with PBS, and centrifuged at 450×g for 5 minutes. To lyse red blood cells, cell pellets were resuspended with 10 mL Ammonium-Chloride-Potassium (ACK) Lysis Buffer and incubated for 8 minutes at room temperature. After lysis, cells were washed with PBS and passed through two 70 μm cell strainers. Viable cell counts were determined with a Vi-CELL cell counter (Beckman Coulter). […] Guanosine was added between about 20 and about 30 minutes before the addition of poly-[…])-complexed RNA. […] After mixing by pipetting up and down, the reaction was incubated for 10 minutes, pipetted up and down again, and then added to the cells. In some experiments, RNA ligands were used at a final concentration of 0.6 μg/ml. Where indicated as “+2'3' cGMP”, 2'3' cyclic GMP purchased from eMolecules was complexed together with the RNA ligands. The final concentration of 2'3' cyclic GMP was 5 μg/ml. p-L-arginine was adjusted accordingly to keep the mass ratio of nucleic acid:p-L-arginine constant. Cell culture supernatants were collected 15-18 hours after stimulation and stored at -80° C. Cytokines in cell culture supernatants were detected with the BD OptEIA human TNF ELISA Set (BD Biosciences), and either Invitrogen IFN alpha Human Matched Antibody Pair kit (Thermo Fisher Scientific) or Human IFN Alpha Multi-Subtype ELISA Kit (PBL Assay Science). To test the effects of the RNA ligands described in Example 1 on TLR7 and TLR8 activation, PBMCs were stimulated with the RNA ligands using p-L-arginine complex delivery, delivery with DOTAP, or delivery without a carrier. Activity of TLR7 and TLR8 was assessed based on measurements of IFN-α or TNF-α by enzyme-linked immunosorbent assays (ELISA). In this setting, as depicted in FIG. 6, IFN-α induced by small RNAs is derived from TLR7 expressed by pDCs, or from RIG-I expressed by monocytes. In contrast, TNF-α secretion is derived from monocytes and serves as an indication of TLR8 activation. As shown in this figure, the p-L-arginine delivery restricts most of the activation to TLRs. First, the effects of the RNA ligands on TLR7 and TLR8 activation using p-L-arginine complex delivery were tested.

TLR8 [4] = target: T1, TLR8; experiment: PBMC stimulation with p-L-arginine-complexed RNA ligands, TNF-α ELISA; details: human PBMCs, p-L-arginine complexes with 2′3′ cyclic GMP 5 μg/ml, ORN 0.6 μg/ml (FIG. 12)
Method: as §1

[5] = human PBMCs, DOTAP delivery, 2 μg/ml (FIG. 10B)
[6] = human PBMCs, DOTAP delivery, 0.6 μg/ml and 2 μg/ml, 16 hours (FIGS. 10A-10B)

Substance | TNF-α secretion (TLR8 activity) (TLR8 [1]; [6]) | IFN-α secretion (TLR7 activity) (TLR7 [2]; [6]) | IFN-α secretion (TLR7 activity) (TLR7 [3]) | TNF-α secretion when co-delivered with 2′3′ cyclic GMP (TLR8 [4]) | IFN-α secretion when co-delivered with 2′3′ cGMP (TLR7 [3]) | also measured
C-C-G-A-G-C-C-G-C-fU-U*fU-U*C-C-C (rCrCrGrArGrCrCrGrCfUrU*fUrU*rCrCrC) [ORN7019, 2′-fluoro-modified and phosphodiester-linked version of ORN7013] | – | – | – | – | – | TNF-α secretion (TLR8 activity) (TLR8 [1]; [5]): also had TLR8-activity; IFN-α secretion (TLR7 activity) (TLR7 [2]; human PBMCs, DOTAP delivery, 0.6 μg/ml (FIG. 10A)): selective TLR7 activation
UCUCUCUCUCUCUCUCUCUC (UCUCUCUCUCUCUCUCUCUC; unmodified RNA) [ORN7005, derived from pU1C of Zhang et al., 2018, reference compound] | activated TLR8 | activated TLR8 rather than TLR7 | no or only minor IFN-α secretion | – | – | IFN-α response to RNA ligand alone (no 2′3′ cGMP) (TLR7 [3]; p-L-arginine alone, ORN 0.6 μg/ml, one donor (FIGS. 12, 16A-16B)): unexpectedly high IFN-α response
C-C-fU-U-C-fU-U-C-fU-U-C-fU-U-C-fU-U-C-fU-U-C (rCrCfUrUrCfUrUrCfUrUrCfUrUrCfUrUrCfUrUrC) [ORN7011, 2′-fluoro-modified version of ORN7009] | – | – | – | little to no measurable TNF-α | robust IFN-a induction | TNF-α secretion (TLR8 activity) (TLR8 [1]; [5]): without TLR8 activity; IFN-α secretion (TLR7 activity) (TLR7 [2]; [5]): had TLR7-activity
C-G-G-fC-U-C-G-G-C-A-G-A-A-G-C-C-G-G-G-C-C (rCrGrGfCrUrCrGrGrCrArGrArArGrCrCrGrGrGrCrC; hairpin) [ORN7023F, 2′-fluoro-C-modified ORN7023] | – | – | further increasing the activity | – | – | TLR7 selectivity (IFN-α versus TNF-α secretion) (TLR7 [3]; p-L-arginine delivery (FIG. 7)): maintained TLR7 selectivity
C-C-mU-U-C-mU-U-C-mU-U-C-mU-U-C-mU-U-C-mU-U-C (rCrCmUrUrCmUrUrCmUrUrCmUrUrCmUrUrCmUrUrC) [ORN7010, 2′O-methyl-modified version of ORN7009] | reduced both TLR8 and TLR7 activation | reduced both TLR8 and TLR7 activation | – | little to no measurable TNF-α | robust IFN-a induction | –
C-A-G-A-C-C*U*U*C-C-A-G-A-C-C*U*U*C (CAGACCUUCCAGACCUUC; linkages o5 s3 o6 s3 (s phosphorothioate, o phosphodiester), sugars by position not given here) [ORN7004] | – | – | – | – | – | TNF-α secretion (TLR8 activity) (TLR8 [1]): markedly increased TLR8 activity; IFN-α secretion (TLR7 activity) (TLR7 [2]): mildly increased TLR7 activity
U-fC-U-fC-U-fC-U-fC-U-fC-U-fC-U-fC-U-fC-U-fC-U-C (rUfCrUfCrUfCrUfCrUfCrUfCrUfCrUfCrUfCrUrC) [ORN7007, 2′-fluoro-modified version of ORN7005] | also reduced activity | also reduced activity | – | little to no measurable TNF-α | robust IFN-a induction | –
U-mC-U-mC-U-mC-U-mC-U-mC-U-mC-U-mC-U-mC-U-mC-U-C (rUmCrUmCrUmCrUmCrUmCrUmCrUmCrUmCrUmCrUrC) [ORN7006, 2′O-methyl-modified version of ORN7005] | reduced both TLR8 and TLR7 activation | reduced both TLR8 and TLR7 activation | – | little to no measurable TNF-α | robust IFN-a induction | –
C*G*G*C*U*C*G*G*C*A*G*A*A*G*C*C*G*G*G*C*C (rC*rG*rG*rC*rU*rC*rG*rG*rC*rA*rG*rA*rA*rG*rC*rC*rG*rG*rG*rC*rC) [ORN7024] | – | – | reduced activity | – | – | –
C-C-G-A-G-C-C-G-C*U*U*U*U*C-C-C (rCrCrGrArGrCrCrGrC*rU*rU*rU*rU*rCrCrC) [ORN7022, phosphodiester-linked version of ORN7013] | activated both TLR7 and TLR8 | activated both TLR7 and TLR8 | – | – | – | –
U*C*U*C*U*C*U*C*U*C*U*C*U*C*U*C*U*C*U*C (rU*rC*rU*rC*rU*rC*rU*rC*rU*rC*rU*rC*rU*rC*rU*rC*rU*rC*rU*rC) [ORN7008] | further increased TLR8 activation | – | – | – | – | –
C-A-G-A-C-C-U-U-C-C-A-G-A-C-C-U-U-C (CAGACCUUCCAGACCUUC; unmodified RNA) [ORN7001, de novo designed ligand] | induced TLR7 and TLR8 activity | induced TLR7 and TLR8 activity | no or only minor IFN-α secretion | – | – | –

Source: patent publication US20240042019A1, “OPTIMIZED TLR7 LIGANDS AND USES THEREOF” (Genentech, Inc., priority 2021, published 2024)
